From ChEMBL document CHEMBL1139671, “Nuphar alkaloids with immediately apoptosis-inducing activity from Nuphar pumilum and their structural requirements for the activity” (2006) come the findings set out here.

Holding throughout (format): functional
Test [1] relates to HT-1080. Nature of the test: Cytotoxicity against HT1080 cells at 0.1 uM after 72 hrs. Particulars: Homo sapiens, HT-1080, 72 h.
The test system of test [2] is B16-F10. Nature of the test: Cytotoxicity against B16F10 cells at 1.0 uM after 72 hrs. Particulars: Mus musculus, B16-F10, 72 h.
For test [3], the system named is B16-F10. Nature of the test: Cytotoxicity against B16F10 cells at 10 uM after 72 hrs. Particulars: Mus musculus, B16-F10, 72 h.
Test [4] has as its system U-937. Nature of the test: Cytotoxicity against U937 cells at 1.0 uM after 72 hrs. Conditions: Homo sapiens, U-937, 72 h.
Test [5] relates to B16-F10. The experiment in a line: Cytotoxicity against B16F10 cells at 0.1 uM after 72 hrs. Particulars: Mus musculus, B16-F10, 72 h.
Test [6] has as its system HT-1080. Nature of the test: Cytotoxicity against HT1080 cells at 10 uM after 72 hrs. Particulars: Homo sapiens, HT-1080, 72 h.
Test [7] relates to U-937. Nature of the test: Cytotoxicity against U937 cells at 10 uM after 72 hrs. Conditions: Homo sapiens, U-937, 72 h.
Test [8] deals with HT-1080. The experiment in a line: Cytotoxicity against HT1080 cells at 1.0 uM after 72 hrs. Conditions: Homo sapiens, HT-1080, 72 h.
The subject of test [9] is U-937. Nature of the test: Cytotoxicity against U937 cells at 1.0 uM after 24 hrs. Particulars: Homo sapiens, U-937, 24 h.
Test [10] has as its system HT-1080. Nature of the test: Cytotoxicity against HT1080 cells at 0.1 uM after 48 hrs. Particulars: Homo sapiens, HT-1080, 48 h.
The test system of test [11] is HT-1080. The experiment in a line: Cytotoxicity against HT1080 cells at 10 uM after 48 hrs. Particulars: Homo sapiens, HT-1080, 48 h.
The subject of test [12] is B16-F10. Nature of the test: Cytotoxicity against B16F10 cells at 10 uM after 24 hrs. Particulars: Mus musculus, B16-F10, 24 h.
Test [13] concerns U-937. The experiment in a line: Cytotoxicity against U937 cells at 1.0 uM after 48 hrs. Particulars: Homo sapiens, U-937, 48 h.
Test [14] deals with B16-F10. Nature of the test: Cytotoxicity against B16F10 cells at 1.0 uM after 48 hrs. Particulars: Mus musculus, B16-F10, 48 h.
For test [15], the system named is U-937. Nature of the test: Cytotoxicity against U937 cells at 10 uM after 24 hrs. Particulars: Homo sapiens, U-937, 24 h.
In test [16] the test system is U-937. Nature of the test: Cytotoxicity against U937 cells at 10 uM after 48 hrs. Particulars: Homo sapiens, U-937, 48 h.
For test [17], the system named is B16-F10. Nature of the test: Cytotoxicity against B16F10 cells at 0.1 uM after 48 hrs. Particulars: Mus musculus, B16-F10, 48 h.
For test [18], the system named is HT-1080. The experiment in a line: Cytotoxicity against HT1080 cells at 1.0 uM after 48 hrs. Conditions: Homo sapiens, HT-1080, 48 h.
The subject of test [19] is B16-F10. The experiment in a line: Cytotoxicity against B16F10 cells at 10 uM after 48 hrs. Conditions: Mus musculus, B16-F10, 48 h.
In test [20] the test system is HT-1080. Nature of the test: Cytotoxicity against HT1080 cells at 10 uM after 24 hrs. Particulars: Homo sapiens, HT-1080, 24 h.

`C[C@@H]1CC[C@@H](c2ccoc2)N2C[C@@]3(CC[C@@H]12)C[S+]([O-])[C@]1(CC[C@H]2[C@H](C)CC[C@@H](c4ccoc4)N2C1)C3` (some centres undefined): the figures for the inhibition at 0.1 µM with HT-1080 [1] and with B16-F10 [5] were -6.1% and 10.4%, respectively. Also, the results for the inhibition at 1 µM with B16-F10 [2], with U-937 [4] and in the test on HT-1080 [8] were 3.2%, 4.7% and -8.1%, respectively. The inhibition (commonly the relative decrease from the control value, in per cent) at 10 µM with B16-F10 [3] was 10.8%; in the test with HT-1080 [6], -4.4%; with U-937 [7] it was 6.3%.
On to `C[C@@H]1CC[C@@H](c2ccoc2)N2[C@H]1CC[C@@]1(CS[C@@]3(CC[C@H]4[C@H](C)CC[C@@H](c5ccoc5)N4[C@@H]3O)C1)[C@H]2O`, for which the inhibition at 1 µM was 5.3% in the test with U-937 [9]; -6% in the test with B16-F10 [2]; 1.3% with U-937 [4]; 2.3% in the test on U-937 [13]; -15% with B16-F10 [14]; 0.5% in the test on HT-1080 [18]. Further, in the test with HT-1080 [8], the inhibition at 1 µM is -0.9%. The inhibition at 0.1 µM is 0.1% in the test with HT-1080 [1], 9% with HT-1080 [10], -3.5% with B16-F10 [5] and -8% in the test on B16-F10 [17]. Further, the inhibition at 10 µM with HT-1080 [11] was determined as 75%; with B16-F10 [3], 54.8%; with B16-F10 [12], 16.6%; in the test on HT-1080 [6] it was 75.3%; with U-937 [15], 54.7%; with U-937 [16], 80%. Also, the results for the inhibition at 10 µM with U-937 [7], in the test with B16-F10 [19] and with HT-1080 [20] were 81.6%, 51.8% and 19.3%, respectively.
`C[C@@H]1CC[C@@H](c2ccoc2)N2C[C@]3(CC[C@@H]12)C[S+]([O-])[C@]1(CC[C@H]2[C@H](C)CC[C@@H](c4ccoc4)N2C1)C3` (some centres undefined): the results for the inhibition at 0.1 µM in the test with HT-1080 [1] and with B16-F10 [5] were -0.4% and -3.7%, respectively. Further, the inhibition at 1 µM with B16-F10 [2] was 7.7%; in the test with U-937 [4], 5.8%; in the test with HT-1080 [8] it was -1.8%. Further, the figures for the inhibition at 10 µM in the test with B16-F10 [3], with HT-1080 [6] and with U-937 [7] were 9.1%, 6.8% and 10%, respectively.
For the compound `C[C@@H]1CC[C@@H](c2ccoc2)N2C[C@@]3(CC[C@@H]12)C[C@]1(CC[C@H]2[C@H](C)CC[C@@H](c4ccoc4)N2[C@@H]1O)CS3` [6'-HYDROXYTHIONUPHLUTINE B], the inhibition at 0.1 µM is -9.8% with HT-1080 [1] and 1.7% with B16-F10 [5]. Also, the figures for the inhibition at 1 µM in the test on B16-F10 [2], in the test with U-937 [4] and in the test on HT-1080 [8] were -1.6%, 0.1% and -7.3%, respectively. The inhibition at 10 µM in the test with B16-F10 [3] is -4.8%; in the test on HT-1080 [6], -9.1%; in the test with U-937 [7], 0.5%.
For the compound `C[C@@H]1CC[C@H]2[C@H](C)CC[C@@H](c3ccoc3)N2C1` [(-)-7-EPI-DEOXYNUPHARIDINE], the inhibition at 1 µM with B16-F10 [2] was -9.8%; in the test with U-937 [4], 6.4%; in the test with HT-1080 [8] it was -6.6%. The inhibition at 10 µM with B16-F10 [3] is -7.9%; in the test on HT-1080 [6] it was -10.1%; in the test on U-937 [7], 8%. In addition, the inhibition at 0.1 µM in the test on B16-F10 [5] is -1.5%.
With `COc1cc([C@H]2Oc3c(OC)cc(CCCO)cc3[C@@H]2CO)ccc1O` [DIHYDRODEHYDRODICONIFERY ALCOHOL], the inhibition at 0.1 µM in the test with HT-1080 [1] was 8.9%; in the test on B16-F10 [5] it was -2.4%. The inhibition at 1 µM was -5.3% with B16-F10 [2], 9.3% with U-937 [4] and 5.2% in the test on HT-1080 [8]. Further, the inhibition at 10 µM was -6.5% with B16-F10 [3], 11.9% in the test with HT-1080 [6] and 13.4% with U-937 [7].
With `C[C@@H]1CC[C@@H](c2ccoc2)N2C[C@]3(CC[C@@H]12)CS[C@]1(CC[C@H]2[C@H](C)CC[C@@H](c4ccoc4)N2C1)C3` [NEOTHIOBINUPHARIDINE], the inhibition at 1 µM in the test on U-937 [9] was 5.2%; in the test with B16-F10 [2], 4%; in the test with U-937 [4] it was -1.2%; with U-937 [13] it was 5.4%; in the test on B16-F10 [14], -8.9%; in the test on HT-1080 [18], -4.1%. The inhibition at 1 µM in the test with HT-1080 [8] was -0.8%. Also, the inhibition at 0.1 µM was -3.4% with HT-1080 [1], -1% with HT-1080 [10], 8.9% in the test with B16-F10 [5] and 4.4% in the test on B16-F10 [17]. Besides, the inhibition at 10 µM stood at 7.5% in the test on HT-1080 [11]; 30.2% in the test on B16-F10 [3]; 38% in the test with HT-1080 [6]; 50.7% in the test with U-937 [15]; 65.6% in the test on U-937 [16]; 40.1% with U-937 [7]. The inhibition at 10 µM in the test with B16-F10 [19] is 24.7%.
Regarding `C[C@H]1CC[C@H]2[C@H](C)CC[C@@H](c3ccoc3)[N+]2([O-])C1` (some centres undefined) [NUPHARIDINE], the results for the inhibition at 0.1 µM in the test on HT-1080 [1] and in the test with B16-F10 [5] were -3.3% and 0.6%, respectively. The inhibition at 1 µM with B16-F10 [2] is 5.3%; in the test with U-937 [4], 8%; in the test on HT-1080 [8] it was -9%. In addition, the inhibition at 10 µM with B16-F10 [3] is 4.1%; with HT-1080 [6], -9%; in the test with U-937 [7] it was 11.5%.
As to `C[C@@H]1CC[C@@H](c2ccoc2)N2C[C@](C)(O)CC[C@@H]12` [NUPHAROLUTINE], the inhibition at 0.1 µM is -12.9% in the test with HT-1080 [1] and -3.1% in the test with B16-F10 [5]. Moreover, the values for the inhibition at 1 µM in the test on B16-F10 [2], in the test on U-937 [4] and in the test on HT-1080 [8] were -1.2%, 12.5% and -13.2%, respectively. The inhibition at 10 µM was -0.9% in the test with B16-F10 [3], -16.7% with HT-1080 [6] and 2.8% in the test on U-937 [7].
As for `C[C@@H]1CC[C@@H](c2ccoc2)N2C[C@@]3(CC[C@@H]12)CS[C@@]1(CC[C@H]2[C@H](C)CC[C@@H](c4ccoc4)N2C1)C3` [THIOBINUPHARIDINE], the inhibition at 0.1 µM was found to be 9.9% with HT-1080 [1] and 6.8% in the test with B16-F10 [5]. Also, the inhibition at 1 µM was 7.9% in the test on B16-F10 [2], 6.9% with U-937 [4] and 6.3% with HT-1080 [8]. The inhibition at 10 µM in the test on B16-F10 [3] is 4.4%; in the test with HT-1080 [6], -11.7%; with U-937 [7], 10.9%.
Turning to `C[C@@H]1CC[C@@H](c2ccoc2)N2C[C@@]3(CC[C@@H]12)CS[C@]1(CC[C@H]2[C@H](C)CC[C@@H](c4ccoc4)N2C1)C3` [THIONUPHLUTINE B], the inhibition at 0.1 µM in the test with HT-1080 [1] is -10.8%; in the test with B16-F10 [5], 1.7%. The figures for the inhibition at 1 µM in the test on B16-F10 [2], in the test on U-937 [4] and with HT-1080 [8] were -2.2%, 9.1% and 0.9%, respectively. The inhibition at 10 µM is 2.2% with B16-F10 [3], -12% with HT-1080 [6] and 7.8% with U-937 [7].
